Source: patent US9499535B2, “Kinase inhibitors” (ORIGENIS GMBH, priority 2011, dated 2016)

Columns and labels:
[1] = target: T1, SYK kinase (Homo sapiens, UniProt P43405); experiment: SYK assay (OMNIA Kinase Assay, Invitrogen); assay type: biochemical; conditions: apparent Ki calculated from the IC50 using the Cheng-Prusoff equation; 1 mM ATP, 10 μM Peptide Substrate; read-out: SYK Activities: Ki
T1 construct: purchased Invitrogen, Carlsbad
Procedure, shortened: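 Continuous SOX-fluorescence (Omnia) readout of Tyr 7 peptide (10 μM) phosphorylation with 1 mM ATP and 0.2 mM DTT at 30° C, started by SYK addition. Fluorescence (λex 360/λem 485 nm) was read every 30 s for 30 min. IC50 from velocity vs concentration; apparent Ki via Cheng-Prusoff.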

[2] = target: LRRK2 (Homo sapiens, UniProt Q5S007); experiment: LRRK2 assay (LanthaScreen Eu Kinase Binding Assay); conditions: 5 nM LRRK2, 10 nM tracer 236, RT 1 h; read-out: LRRK2 Activites: IC50
Chain of LRRK2 (Q5S007 970-2527 limits assumed): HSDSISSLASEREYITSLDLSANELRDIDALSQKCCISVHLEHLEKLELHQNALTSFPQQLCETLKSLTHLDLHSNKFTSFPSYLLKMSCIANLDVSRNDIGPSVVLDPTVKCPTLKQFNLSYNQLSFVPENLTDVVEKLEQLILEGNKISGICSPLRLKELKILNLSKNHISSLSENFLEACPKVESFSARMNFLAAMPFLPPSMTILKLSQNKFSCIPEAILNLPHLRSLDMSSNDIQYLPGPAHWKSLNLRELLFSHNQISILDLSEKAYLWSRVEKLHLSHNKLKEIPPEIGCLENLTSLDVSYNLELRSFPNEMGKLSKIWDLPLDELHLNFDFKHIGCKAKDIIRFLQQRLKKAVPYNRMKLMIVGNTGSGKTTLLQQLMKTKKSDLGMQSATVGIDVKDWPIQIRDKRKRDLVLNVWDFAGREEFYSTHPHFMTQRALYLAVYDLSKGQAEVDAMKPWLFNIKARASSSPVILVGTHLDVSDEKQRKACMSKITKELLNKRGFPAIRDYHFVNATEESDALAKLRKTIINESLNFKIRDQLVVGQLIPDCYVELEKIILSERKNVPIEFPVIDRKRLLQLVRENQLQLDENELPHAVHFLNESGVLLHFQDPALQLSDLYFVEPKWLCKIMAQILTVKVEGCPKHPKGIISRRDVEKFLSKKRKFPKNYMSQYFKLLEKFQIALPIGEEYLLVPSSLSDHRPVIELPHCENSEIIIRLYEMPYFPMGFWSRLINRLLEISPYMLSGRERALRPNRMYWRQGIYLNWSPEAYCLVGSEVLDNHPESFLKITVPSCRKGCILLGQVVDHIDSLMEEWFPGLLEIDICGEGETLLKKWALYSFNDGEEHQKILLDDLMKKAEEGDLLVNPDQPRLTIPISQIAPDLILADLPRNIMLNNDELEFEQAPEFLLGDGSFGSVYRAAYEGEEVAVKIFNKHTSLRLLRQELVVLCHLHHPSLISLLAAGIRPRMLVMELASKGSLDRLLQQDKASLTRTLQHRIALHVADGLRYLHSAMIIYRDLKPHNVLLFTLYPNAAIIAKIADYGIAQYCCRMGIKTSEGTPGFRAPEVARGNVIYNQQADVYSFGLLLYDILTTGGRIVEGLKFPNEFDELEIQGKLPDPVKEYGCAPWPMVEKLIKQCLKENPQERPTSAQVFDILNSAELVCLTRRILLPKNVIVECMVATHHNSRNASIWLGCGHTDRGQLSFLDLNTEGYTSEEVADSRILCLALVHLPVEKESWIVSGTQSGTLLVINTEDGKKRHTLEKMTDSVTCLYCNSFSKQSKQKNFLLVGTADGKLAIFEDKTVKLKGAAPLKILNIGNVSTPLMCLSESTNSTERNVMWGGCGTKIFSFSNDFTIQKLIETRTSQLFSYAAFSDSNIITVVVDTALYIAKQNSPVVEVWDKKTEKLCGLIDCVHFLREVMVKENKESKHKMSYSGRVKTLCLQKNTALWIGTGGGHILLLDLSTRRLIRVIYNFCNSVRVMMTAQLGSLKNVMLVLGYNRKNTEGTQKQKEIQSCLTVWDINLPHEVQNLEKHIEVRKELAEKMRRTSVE
Procedure, shortened: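 Kinase binding was detected by europium anti-tag antibody FRET with a competing tracer, so inhibitor binding lowers the FRET signal. IC50 came from a variable-slope sigmoidal fit of emission ratio against inhibitor concentration.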

[3] = target: MYLK (Homo sapiens, UniProt Q15746); experiment: MYLK assay (LanthaScreen Eu Kinase Binding Assay); conditions: 5 nM MYLK, 30 nM tracer 236, RT 1 h; read-out: MYLK Activites: IC50
Chain of MYLK (Q15746 whole entry): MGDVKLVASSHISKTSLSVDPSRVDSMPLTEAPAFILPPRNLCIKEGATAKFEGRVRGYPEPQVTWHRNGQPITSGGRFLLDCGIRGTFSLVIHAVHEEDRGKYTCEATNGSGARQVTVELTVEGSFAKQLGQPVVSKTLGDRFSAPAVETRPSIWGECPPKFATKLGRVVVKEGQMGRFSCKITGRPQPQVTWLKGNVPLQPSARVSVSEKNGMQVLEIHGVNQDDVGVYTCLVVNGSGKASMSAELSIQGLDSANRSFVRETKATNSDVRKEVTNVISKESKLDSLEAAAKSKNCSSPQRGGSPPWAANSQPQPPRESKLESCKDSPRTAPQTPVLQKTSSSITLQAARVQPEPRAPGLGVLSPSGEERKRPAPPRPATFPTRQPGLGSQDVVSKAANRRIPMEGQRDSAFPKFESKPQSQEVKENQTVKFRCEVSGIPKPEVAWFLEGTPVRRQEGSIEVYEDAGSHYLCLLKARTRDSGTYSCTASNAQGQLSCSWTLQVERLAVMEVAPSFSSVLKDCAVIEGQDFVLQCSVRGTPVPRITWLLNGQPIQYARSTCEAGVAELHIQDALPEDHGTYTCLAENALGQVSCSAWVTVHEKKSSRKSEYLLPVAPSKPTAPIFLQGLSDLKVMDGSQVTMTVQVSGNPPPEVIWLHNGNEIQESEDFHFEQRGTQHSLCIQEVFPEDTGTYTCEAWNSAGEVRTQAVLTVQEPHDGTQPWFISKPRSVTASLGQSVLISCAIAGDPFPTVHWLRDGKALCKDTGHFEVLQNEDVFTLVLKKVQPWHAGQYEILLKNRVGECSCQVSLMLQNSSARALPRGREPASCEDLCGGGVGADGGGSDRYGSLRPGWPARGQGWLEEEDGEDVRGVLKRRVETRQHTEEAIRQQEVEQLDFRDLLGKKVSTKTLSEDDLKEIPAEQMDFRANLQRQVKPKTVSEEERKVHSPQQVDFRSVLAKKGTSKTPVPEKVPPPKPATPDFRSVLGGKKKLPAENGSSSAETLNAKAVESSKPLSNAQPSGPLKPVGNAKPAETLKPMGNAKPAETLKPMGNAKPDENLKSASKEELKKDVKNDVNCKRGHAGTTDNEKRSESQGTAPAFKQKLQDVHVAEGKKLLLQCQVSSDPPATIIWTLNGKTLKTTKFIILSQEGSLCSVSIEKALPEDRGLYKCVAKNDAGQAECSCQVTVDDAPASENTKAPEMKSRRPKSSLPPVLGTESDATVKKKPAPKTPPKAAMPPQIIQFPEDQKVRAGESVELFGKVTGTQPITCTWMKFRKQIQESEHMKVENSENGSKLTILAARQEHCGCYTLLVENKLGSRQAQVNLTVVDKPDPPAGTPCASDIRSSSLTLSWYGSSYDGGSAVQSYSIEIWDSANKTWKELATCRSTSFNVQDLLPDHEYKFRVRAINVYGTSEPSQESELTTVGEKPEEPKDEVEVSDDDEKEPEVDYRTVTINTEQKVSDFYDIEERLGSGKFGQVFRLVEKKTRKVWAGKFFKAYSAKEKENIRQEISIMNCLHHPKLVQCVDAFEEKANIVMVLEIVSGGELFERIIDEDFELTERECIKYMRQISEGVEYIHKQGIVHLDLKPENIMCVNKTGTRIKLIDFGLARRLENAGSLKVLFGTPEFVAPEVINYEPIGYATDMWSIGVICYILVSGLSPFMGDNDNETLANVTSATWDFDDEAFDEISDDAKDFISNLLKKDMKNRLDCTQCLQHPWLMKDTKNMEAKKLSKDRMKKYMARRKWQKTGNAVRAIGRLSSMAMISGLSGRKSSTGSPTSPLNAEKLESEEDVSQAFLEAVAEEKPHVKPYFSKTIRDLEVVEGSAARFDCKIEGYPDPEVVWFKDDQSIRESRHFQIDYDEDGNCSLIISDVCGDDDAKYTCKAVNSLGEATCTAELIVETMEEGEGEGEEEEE
Procedure, shortened: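 TR-FRET tracer-displacement binding: 5 nM MYLK with 2 nM Eu-anti-GST antibody and 30 nM tracer 236 in kinase buffer A, 1 h at RT. The 665/615 nm emission ratio was plotted against inhibitor concentration; IC50 from variable-slope sigmoidal fit.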

SMILES	Ki [1] [nM]	IC50 [2] [nM]	IC50 [3] [nM]
COc1cccc2nc(Nc3ccc4c(c3)NC(=O)CC4)c3[nH]ncc3c12 [Example #339, 7-((9-methoxy-3H-pyrazolo[3,4-c]quinolin-4-yl)amino)-3,4-dihydroquinolin-2(1H)-one]	10 to 100	10 to 100	< 5000
COc1cccc2nc(Nc3ccc(N4CCN(C(C)=O)CC4)cc3)c3[nH]ncc3c12 [Example #340, 1-(4-(4-((9-methoxy-3H-pyrazolo[3,4-c]quinolin-4-yl)amino)phenyl)piperazin-1-yl)ethan-1-one]	10 to 100	10 to 100	< 5000
COc1ccc2nc(Nc3cccc([S+](C)[O-])c3)c3n[nH]cc3c2c1 (stereo not drawn) [Example #346, 8-methoxy-N-(3-(methylsulfinyl)phenyl)-2H-pyrazolo[3,4-c]quinolin-4-amine]	100 to 1000	100 to 1000	< 5000
CNS(=O)(=O)c1cccc(Nc2nc3ccc(OC)cc3c3c[nH]nc23)c1 [Example #348, 3-((8-methoxy-2H-pyrazolo[3,4-c]quinolin-4-yl)amino)-N-methylbenzenesulfonamide]	10 to 100	10 to 100	< 5000
COc1cccc2nc(Nc3ccc(CN(C)C)cc3)c3[nH]ncc3c12 [Example #353, N-(4-((dimethylamino)methyl)phenyl)-9-methoxy-3H-pyrazolo[3,4-c]quinolin-4-amine]	10 to 100	10 to 100	< 5000
